{"source": "patent US12036312B2", "about": "“Non-aqueous topical compositions comprising a halogenated salicylanilide” (priority 2016, dated 2024)", "key": {"MRSA 01": {"system": "MRSA 01", "experiment": "Effect of pH on the antibacterial activity (MIC in pH-adjusted Mueller-Hinton Broth)", "format": "cell-based, Staphylococcus aureus", "details": "for MIC: Staphylococcus aureus, MRSA", "experimental": "Chosen for its relevance regarding bacterial skin infections, the methicillin-resistant S. aureus (MRSA) 01 strain was used. This strain is a community-acquired MRSA clinical isolate of USA 300 type, from a skin abscess.\nThis strain was conserved in Luria Bertani (LB) Broth supplemented with glycerol 15% (v/v) at −80° C., and reactivated by isolation on LB agar plates. It was then cultivated aerobically in Mueller Hinton (MH) Broth-cation adjusted at 37° C.\nThe pH of Mueller-Hinton Broth cation-adjusted was adjusted with HCl 2M to 7, 6.5, 6, 5.5, 5, 4.5 and […]. Ten ml of medium for each pH were prepared. The pH of non-adjusted MHBII was equal to 7.4.\nEach pH-adjusted samples were filtered on 0.2 μm filters before being used for the MIC determination assay.\n(§1) Bacterial culture was stopped in its exponential growth phase and plates were inoculated with the approximate concentration of 5×10^5 cells per well. Plates were incubated at 37° C. for 18 hours (S. aureus). Optical density at a wavelength of 600 nm was measured at the end of the incubation time.\nThe experiment was performed in triple biological replicates."}, "[1]": {"experiment": "Mini-pig PK: niclosamide concentration in plasma", "format": "in vivo, Göttingen SPF mini-pigs", "details": "mini-pigs, day 28, dermal application of the formulations", "experimental": "The study was performed in 3 male and 3 female Göttingen SPF mini-pigs from Ellegaard Göttingen Mini-pigs A/S, DK-4261 Dalmose, Denmark. At the start of the acclimatization period, the animals were approximately 6 months old and the body weight was 12.1 to 13.4 kg. An acclimatization period of at least 1 week was allowed, during which the animals were observed daily.\nAll test fields were semi-occluded with Mefix® (Mölnlycke Health Care, Sweden), allowing the sites to “breathe” while keeping the test substance in place. The Mefix® was kept in place with adhesive tape (Tensoplast, BSN medical, Germany) for 6 hours±30 minutes after application to ensure that the compounds were absorbed into the skin."}, "S. pyogenes": {"system": "S. pyogenes", "experiment": "MIC assay, Example 2, S. pyogenes strains (in BHI)", "format": "cell-based, Streptococcus pyogenes", "details": "4 strains", "experimental": "Two-hundred-four other MRSA and methicillin-sensitive S. aureus strains, and 4 Streptococcus pyogenes strains, were also included in the study. These covered fusidic acid- and mupirocin-resistant strains, these two types of resistance being of clinical relevance.\nStrains were conserved in Luria Bertani (LB) Broth (S. aureus) or Brain Heart Infusion (BHI) (S. pyogenes) supplemented with glycerol 15% (v/v) at −80° C., and reactivated by isolation on LB (S. aureus) or BHI (S. pyogenes) agar plates. Strains were cultivated in Mueller Hinton (MH) Broth-cation adjusted (S. aureus) or BHI (S. pyogenes). All strains were cultivated aerobically (microaerobically for S. pyogenes strains) at 37° C.\nas §1, with “cultures were” for “culture was”, “their” for “its”, “aureus) or 24 hours (S. pyogenes).” for “aureus).”"}, "P. aeruginosa": {"system": "P. aeruginosa", "details": "Imperi et al. 2013, cited from earlier work"}, "S. aureus": {"system": "S. aureus", "experiment": "Minimum inhibitory concentration (MIC) assay, Example 1, S. aureus strains", "format": "cell-based", "details": "Staphylococcus aureus", "from_the_text": "The methicillin-resistant S. aureus (MRSA) 01 strain was used as the primary test microorganism as a representative bacteria commonly found in skin infections. This strain is a community-acquired MRSA clinical isolate of USA 300 type, from a skin abscess.\nTwenty-one other MRSA and methicillin-sensitive S. aureus strains, and 4 Streptococcus pyogenes strains, were also included in the study (Table 2). These covered fusidic acid- and mupirocin-resistant strains, these two types of resistance being of clinical relevance.\nStrains were conserved in Luria Bertani (LB) Broth (S. aureus) or Brain Heart Infusion (BHI) (S. pyogenes) supplemented with glycerol 15% (v/v) at −80° C., and reactivated by isolation on LB (S. aureus) or BHI (S. pyogenes) agar plates. Strains were cultivated in Mueller Hinton (MH) Broth-cation adjusted (S. aureus) supplemented with lysed horse blood 2.5% (v/v) (S. pyogenes). All strains were cultivated at 37° C., aerobically for S. aureus strains.\nBacterial cultures were stopped in their exponential growth phase and plates were inoculated with the approximate concentration of 10^3 cells per well. Plates were incubated at 37° C. for 18 hours (S. aureus) or 24 hours (S. pyogenes). Optical density at a wavelength of 600 nm was measured at the end of the incubation time. […] Experiments were performed at least as triplicate biological replicates with all strains."}, "[2]": {"system": "MRSA 01, MRSA 15 (fusidic acid-resistant), MRSA 16 (mupirocin-resistant)", "experiment": "Mutational frequency evaluation (spontaneous single-step mutations), Example 1", "format": "cell-based, Staphylococcus aureus", "details": "at MIC×1 (Example 1)"}, "[3]": {"details": "published literature values; cited from earlier work"}}, "note": "Read-outs that look alike come from different tables or passages of the source."}
{"smiles": "O=C(Nc1ccc([N+](=O)[O-])cc1Cl)c1cc(Cl)ccc1O", "note": "[Niclosamide, niclosamide]", "values": [{"measurement": "MIC", "setting": "MRSA 01; MRSA 01, pH 7.0 (actual pH 7.071), Replicate 2", "value": 0.125, "unit": "µg/mL"}, {"measurement": "MIC", "setting": "MRSA 01; pH 7.4, MRSA 01, pH not adjusted (actual pH 7.4), Replicate 1", "value": 0.5, "unit": "µg/mL"}, {"measurement": "MIC", "setting": "MRSA 01; pH 7.4, MRSA 01, pH not adjusted (actual pH 7.4), Replicate 3", "value": 0.5, "unit": "µg/mL"}, {"measurement": "inhibitory activity against MRSA 01 as a function of pH", "setting": "MRSA 01; pH-adjusted Mueller-Hinton Broth", "value": "increased when pH was decreased"}, {"measurement": "concentration in the plasma", "setting": "[1]", "value": "less than 0.651 ng/mL"}, {"measurement": "MIC distribution: percentage of Streptococcus pyogenes strains", "setting": "S. pyogenes; MIC 0.0625 μg/ml", "value": 25, "unit": "%"}, {"measurement": "MIC distribution: percentage of Streptococcus pyogenes strains", "setting": "S. pyogenes; MIC 0.5 μg/ml", "value": "25% (1/4)"}, {"measurement": "MIC distribution: percentage of Streptococcus pyogenes strains", "setting": "S. pyogenes; MIC […]", "value": "25% (1/4)"}, {"measurement": "effect on growth of P. aeruginosa", "setting": "P. aeruginosa", "value": "does not affect the growth of P. aeruginosa"}, {"measurement": "concentration at which some inhibition was detected (quorum sensing)", "setting": "P. aeruginosa; P. aeruginosa", "value": 1, "unit": "µM"}, {"measurement": "concentration required for optimal activity (quorum sensing)", "setting": "P. aeruginosa; P. aeruginosa", "value": 20, "unit": "µM"}, {"measurement": "MIC", "setting": "S. aureus; MRSA, * tested against one strain: MRSA 01, read-out: Mic100 S. aureus", "value": "≤ 0.4", "unit": "µg/mL"}, {"measurement": "MIC", "setting": "S. aureus; MRSA, strain MRSA 01, read-out: MIC", "value": 0.4, "unit": "µg/mL"}, {"measurement": "MIC", "setting": "S. aureus; MRSA, strain MRSA 02, read-out: MIC", "value": 0.2, "unit": "µg/mL"}, {"measurement": "MIC", "setting": "S. aureus; MRSA, strain MRSA 03*, read-out: MIC", "value": 0.4, "unit": "µg/mL"}, {"measurement": "MIC", "setting": "S. aureus; MRSA, strain MRSA 04, read-out: MIC", "value": 0.4, "unit": "µg/mL"}, {"measurement": "MIC", "setting": "S. aureus; MRSA, strain MRSA 05, read-out: MIC", "value": 0.2, "unit": "µg/mL"}, {"measurement": "MIC", "setting": "S. aureus; MRSA, strain MRSA 06, read-out: MIC", "value": 0.4, "unit": "µg/mL"}, {"measurement": "MIC", "setting": "S. aureus; MRSA, strain MRSA 07, read-out: MIC", "value": 0.2, "unit": "µg/mL"}, {"measurement": "MIC", "setting": "S. aureus; MRSA, strain MRSA 08*, read-out: MIC", "value": 0.4, "unit": "µg/mL"}, {"measurement": "MIC", "setting": "S. aureus; MRSA, strain MRSA 09, read-out: MIC", "value": 0.2, "unit": "µg/mL"}, {"measurement": "MIC", "setting": "S. aureus; MRSA, strain MRSA 10, read-out: MIC", "value": 0.4, "unit": "µg/mL"}, {"measurement": "MIC", "setting": "S. aureus; MRSA, strain MRSA 11, read-out: MIC", "value": 0.1, "unit": "µg/mL"}, {"measurement": "MIC", "setting": "S. aureus; MRSA, strain MRSA 12*, read-out: MIC", "value": 0.4, "unit": "µg/mL"}, {"measurement": "MIC", "setting": "S. aureus; MRSA, strain MRSA 13*, read-out: MIC", "value": 0.4, "unit": "µg/mL"}, {"measurement": "MIC", "setting": "S. aureus; MRSA, strain MRSA 14*, read-out: MIC", "value": 0.4, "unit": "µg/mL"}, {"measurement": "MIC", "setting": "S. aureus; MRSA, strain MRSA 15*, read-out: MIC", "value": 0.2, "unit": "µg/mL"}, {"measurement": "MIC", "setting": "S. aureus; MRSA, strain MRSA 16*, read-out: MIC", "value": 0.2, "unit": "µg/mL"}, {"measurement": "MIC", "setting": "S. aureus; MRSA, strain MRSA 17*, read-out: MIC", "value": 0.2, "unit": "µg/mL"}, {"measurement": "MIC", "setting": "S. aureus; MSSA, strain MSSA 01*, read-out: MIC", "value": 0.4, "unit": "µg/mL"}, {"measurement": "MIC", "setting": "S. aureus; MSSA, strain MSSA 02*, read-out: MIC", "value": 0.4, "unit": "µg/mL"}, {"measurement": "MIC", "setting": "S. aureus; NEWMAN, strain Newman, read-out: MIC", "value": 0.2, "unit": "µg/mL"}, {"measurement": "MIC", "setting": "S. aureus; strain EEFIC 01*, read-out: MIC", "value": 0.4, "unit": "µg/mL"}, {"measurement": "MIC", "setting": "S. aureus; strain EEFIC 02*, read-out: MIC", "value": 0.2, "unit": "µg/mL"}, {"measurement": "mutational frequency", "setting": "[2]", "value": "< 4×10^−10"}, {"measurement": "LD50 mice p.o", "setting": "[3]", "value": ">1500", "unit": "mg/kg"}]}
